Target: α7 nAChR subtype (Rattus norvegicus, UniProt Q05941)
Assay type: binding

Chain of α7 nAChR subtype (Q05941 23-502 limits assumed): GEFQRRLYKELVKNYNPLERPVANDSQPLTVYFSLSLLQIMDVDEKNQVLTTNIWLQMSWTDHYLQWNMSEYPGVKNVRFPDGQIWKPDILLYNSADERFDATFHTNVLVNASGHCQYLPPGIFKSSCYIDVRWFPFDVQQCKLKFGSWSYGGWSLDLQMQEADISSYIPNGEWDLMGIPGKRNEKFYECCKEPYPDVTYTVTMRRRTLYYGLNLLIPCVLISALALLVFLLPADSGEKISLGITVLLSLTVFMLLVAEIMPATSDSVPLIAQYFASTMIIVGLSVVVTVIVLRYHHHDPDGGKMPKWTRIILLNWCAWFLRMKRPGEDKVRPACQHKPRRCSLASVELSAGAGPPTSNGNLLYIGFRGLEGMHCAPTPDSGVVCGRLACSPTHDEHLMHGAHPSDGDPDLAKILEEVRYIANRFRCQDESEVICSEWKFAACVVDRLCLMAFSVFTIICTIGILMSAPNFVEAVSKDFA

^125I-α—Bungarotoxin [^125I-α-BTX]
Kd: 1.67 nM

Reference: patent publication US20070191422A1 (priority 2003, published 2007)
